The source of these data is US9359341B2, “Aldehyde derivative of substitute oxazolidinones” (WANBURY LTD., priority 2012, dated 2016).

The test system of data set [1] is CYP isoforms. Kind of data set: CYP inhibition assay, all isoforms (overall interpretation). The class given is in vitro ADME, human. The conditions noted are these: with other drug when administered. As for the experimental part:
(§1) The ability of substances to inhibit CYP1A2, CYP2C9, CYP2D6, CYP2C19, CYP2J2 and CYP3A4 in humans was investigated with pooled human liver microsomes as enzyme source in the presence of standard substrates (see below) which form CYP-isoform-specific metabolites.
(§2) Standard incubation mixtures comprise NADPH and substrates in 100 mM phosphate buffer (pH 7.4) in a total volume of 200 μl. Test compound are dissolved in acetonitrile. Incubated with pooled human liver microsomes at 37° C. for a defined time. The reactions are stopped by adding 100 μl of acetonitrile in which a suitable internal standard is always present. Precipitated proteins are removed by centrifugation, and the supernatants analyzed by LC-MS/MS. The data represents the extrapolated IC50 (μM) concentration derived from 3 μM.
(§3) This is an essential parameter to gauge drug-drug interactions.

Data set [2] concerns CYP1A2, CYP2C9, CYP2D6, CYP2C19, CYP2J2 and CYP3A4. The data set is described as above. It is filed as in vitro ADME, human. The settings on record: human, pooled human liver microsomes, pH 7.4; all assayed isoforms; minimal inhibition; read-out: inhibition of the CYP isoforms that were assayed. On the procedure: as §1, §2, §3
(In general: Microsomes from liver hold many membrane-bound enzymes, among them those of drug oxidation.)

A short description of data set [3]: In vitro stability in human plasma. The class given is in vitro ADME. The conditions noted are these: conversion to rivaroxaban seen from zero min. On the procedure:
(§4) The final concentration of the test compound in the assay is 5 micromolar. […] C. The 100 microliters of aliquot at time point was removed and diluted with ice cold acetonitrile containing IS (200.mu·L) to stop the reactions. Samples are centrifuged at 10,000 RPM for 5 minutes to precipitate proteins. Supernatants are transferred to micro centrifuge tubes and stored at −20° C. for analysis of LC/MS/MS. The percent parent remaining of the test substance is calculated as ratio of peak area at each time point to peak area ratio at zero min, multiplied by 100.
(§5) API 4000, ESI Agilent 1100 column: Gemini Nx 100 mm×4.6 mm 5.1; column temperature: 30° C.; eluent A: 0.1% formic acid in water, eluent B: acetonitrile; gradient: 0-2.5 min 95% A, 5% B; 2.5-2.6 min 5% A, 95% B; 2.6-4.2 min 95% A, 5% B; flow rate: 0.8 ml/min; ESI. Q1:464.098, Q3:144.255

Data set [4] in a line: In vitro stability in mouse plasma. The settings on record: conversion to rivaroxaban seen from zero min. The class given is in vitro ADME. As for the experimental part: as §4, §5
Data set [5] is described as follows: Stability in buffer at various pH. The class given is physicochemical. The conditions noted are these: for Analyte Peak Area, Average: Standard average 39849828. As for the experimental part:
On completion of incubation period, the solution is centrifuged and supernatant is taken. To the supernatant, ice cold acetonitrile containing IS is added, vortexed and injected into LCMS/MS.
API 4000, ESI Agilent 1100 column: Gemini Nx 100 mm×4.6 mm 5.μ; column temperature: 30° C.; eluent A: 0.1% formic acid in water, eluent B: acetonitrile; gradient: 0-2.5 min 95% A, 5% B; 2.5-2.6 min 5% A, 95% B; 2.6-4.2 min 95% A, 5% B; flow rate: 0.8 ml/min; ESI. Q1:464.098, Q3:144.255
Prepared 0.1 mol of citric acid and 0.2 mol of di sodium hydrogen phosphate in water. Buffer pH 2.2, 4 and 7.8 are prepared using citric acid and disodium hydrogen phosphate by adjusting the pH with 0.1N HCl or 1N NaOHpH 7.4: 8.89 g disodium hydrogen phosphate (Solution A) add to 1 liter of water, 1.5601 g sodium di-hydrogen phosphate (solution B) are made up to 1 liter with water; Solution A (19 ml) and Solution B (81 ml) are mixed. SIF/SGF: 2.38 g of SIF original powder (biorelavant media) is dissolved in 1 L of milliQ water. The pH of the solution is adjusted for SIF (7.4) and SGF (2.2) with 0.1N HCl. The ratios of the peak areas (F) at the respective time points in relation to the peak areas at the starting time are calculated

In data set [6] the target is CYP3A4 (Homo sapiens (Human), UniProt P08684). The experiment in a line: CYP inhibition assay. It is filed as in vitro ADME. The settings on record: pooled human liver microsomes; extrapolated IC50 derived from 3 μM; read-out: IC50 (μM) of CYP isoforms, 3A4. As for the experimental part: as §1
Chain of CYP3A4 (P08684 whole entry, canonical isoform): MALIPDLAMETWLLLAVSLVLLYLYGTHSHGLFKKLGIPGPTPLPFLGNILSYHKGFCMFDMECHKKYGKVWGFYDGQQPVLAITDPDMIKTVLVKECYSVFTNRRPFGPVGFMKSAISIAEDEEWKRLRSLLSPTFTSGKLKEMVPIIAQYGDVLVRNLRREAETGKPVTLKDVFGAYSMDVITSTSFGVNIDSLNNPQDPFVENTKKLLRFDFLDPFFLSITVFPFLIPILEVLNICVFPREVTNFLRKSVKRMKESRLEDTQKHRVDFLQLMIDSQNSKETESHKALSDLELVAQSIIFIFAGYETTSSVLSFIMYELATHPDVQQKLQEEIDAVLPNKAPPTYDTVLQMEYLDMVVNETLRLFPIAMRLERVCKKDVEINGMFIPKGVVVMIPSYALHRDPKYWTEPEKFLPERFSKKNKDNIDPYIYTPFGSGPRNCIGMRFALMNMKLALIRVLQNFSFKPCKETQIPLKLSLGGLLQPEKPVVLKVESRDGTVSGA
(§6) Standard incubation mixtures comprise NADPH and substrates in 100 mM phosphate buffer (pH 7.4) in a total volume of 200 μl. Test compound are dissolved in acetonitrile. Incubated with pooled human liver microsomes at 37° C. for a defined time. The reactions are stopped by adding 100 μl of acetonitrile in which a suitable internal standard is always present. Precipitated proteins are removed by centrifugation, and the supernatants analyzed by LC-MS/MS.

For data set [7], the target named is CYP1A2 (Homo sapiens (Human), UniProt P05177). Kind of data set: CYP inhibition assay. It is filed as in vitro ADME. The conditions noted are these: pooled human liver microsomes; extrapolated IC50 derived from 3 μM; read-out: IC50 (μM) of CYP isoforms, 1A2. As for the experimental part:
as §1, §6

Data set [8] has as its target CYP2J2 (Homo sapiens (Human), UniProt P51589). The experiment in a line: CYP inhibition assay. It is filed as in vitro ADME. The conditions noted are these: pooled human liver microsomes; extrapolated IC50 derived from 3 μM; read-out: IC50 (μM) of CYP isoforms, 2J2. As for the experimental part:
as §1, §2

Data set [9] has as its target CYP2C9 (Homo sapiens (Human), UniProt P11712). The experiment in a line: CYP inhibition assay. It is filed as in vitro ADME. The settings on record: pooled human liver microsomes; extrapolated IC50 derived from 3 μM; read-out: IC50 (μM) of CYP isoforms, 2C9. As for the experimental part:
as §1, §2

For data set [10], the target named is CYP2C19 (Homo sapiens (Human), UniProt P33261). The experiment in a line: CYP inhibition assay. It is filed as in vitro ADME. The conditions noted are these: pooled human liver microsomes; extrapolated IC50 derived from 3 μM; read-out: IC50 (μM) of CYP isoforms, 2C19. As for the experimental part: as §1, §2
Chain of CYP2C19 (P33261 whole entry, canonical isoform): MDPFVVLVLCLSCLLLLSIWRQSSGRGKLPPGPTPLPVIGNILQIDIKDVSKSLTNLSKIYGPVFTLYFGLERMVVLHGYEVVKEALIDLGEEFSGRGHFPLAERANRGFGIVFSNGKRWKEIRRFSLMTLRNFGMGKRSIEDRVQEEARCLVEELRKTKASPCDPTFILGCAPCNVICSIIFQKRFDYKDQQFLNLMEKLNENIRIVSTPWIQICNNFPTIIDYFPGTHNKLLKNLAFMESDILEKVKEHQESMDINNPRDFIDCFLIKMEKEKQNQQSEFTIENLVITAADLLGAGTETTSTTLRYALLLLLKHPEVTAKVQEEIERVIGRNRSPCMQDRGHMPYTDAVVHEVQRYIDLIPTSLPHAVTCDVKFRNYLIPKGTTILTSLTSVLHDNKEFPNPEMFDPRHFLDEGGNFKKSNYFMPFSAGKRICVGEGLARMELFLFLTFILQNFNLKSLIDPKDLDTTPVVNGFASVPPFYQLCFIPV
Data set [11] addresses CYP2D6 (Homo sapiens (Human), UniProt P10635). Kind of data set: CYP inhibition assay. It is filed as in vitro ADME. The conditions noted are these: pooled human liver microsomes; extrapolated IC50 derived from 3 μM; read-out: IC50 (μM) of CYP isoforms, 2D6. On the procedure: as §1, §2

Chain of CYP2C9 (P11712 whole entry, canonical isoform): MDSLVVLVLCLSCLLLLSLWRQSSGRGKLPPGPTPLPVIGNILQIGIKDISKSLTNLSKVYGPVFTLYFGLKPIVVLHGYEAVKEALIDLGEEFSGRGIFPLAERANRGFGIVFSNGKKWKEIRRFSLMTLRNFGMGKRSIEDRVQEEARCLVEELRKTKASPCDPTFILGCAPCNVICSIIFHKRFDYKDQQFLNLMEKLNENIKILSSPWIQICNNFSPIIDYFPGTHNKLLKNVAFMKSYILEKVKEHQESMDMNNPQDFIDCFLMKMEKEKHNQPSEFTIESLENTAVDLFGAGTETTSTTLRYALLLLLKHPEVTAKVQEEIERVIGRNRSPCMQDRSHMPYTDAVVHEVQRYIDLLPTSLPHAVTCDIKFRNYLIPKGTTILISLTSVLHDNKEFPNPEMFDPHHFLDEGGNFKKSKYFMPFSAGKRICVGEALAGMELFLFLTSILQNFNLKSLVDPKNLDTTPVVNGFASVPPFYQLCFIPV
Chain of CYP1A2 (P05177 whole entry, canonical isoform): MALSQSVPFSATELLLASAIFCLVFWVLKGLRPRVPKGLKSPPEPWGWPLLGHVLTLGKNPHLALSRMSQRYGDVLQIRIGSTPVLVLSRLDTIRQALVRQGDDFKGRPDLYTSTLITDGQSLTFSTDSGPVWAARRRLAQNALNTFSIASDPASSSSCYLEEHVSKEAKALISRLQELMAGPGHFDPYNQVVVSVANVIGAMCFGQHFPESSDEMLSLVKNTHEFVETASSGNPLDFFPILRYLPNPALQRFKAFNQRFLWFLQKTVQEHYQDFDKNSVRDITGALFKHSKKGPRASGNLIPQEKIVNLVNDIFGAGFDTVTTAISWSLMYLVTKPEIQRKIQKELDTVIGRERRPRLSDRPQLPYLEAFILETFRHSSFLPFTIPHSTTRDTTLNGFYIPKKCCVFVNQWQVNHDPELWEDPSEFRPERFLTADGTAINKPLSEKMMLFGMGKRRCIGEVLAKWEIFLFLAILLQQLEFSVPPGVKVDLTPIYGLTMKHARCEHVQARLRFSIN
Chain of CYP2D6 (P10635 whole entry, canonical isoform): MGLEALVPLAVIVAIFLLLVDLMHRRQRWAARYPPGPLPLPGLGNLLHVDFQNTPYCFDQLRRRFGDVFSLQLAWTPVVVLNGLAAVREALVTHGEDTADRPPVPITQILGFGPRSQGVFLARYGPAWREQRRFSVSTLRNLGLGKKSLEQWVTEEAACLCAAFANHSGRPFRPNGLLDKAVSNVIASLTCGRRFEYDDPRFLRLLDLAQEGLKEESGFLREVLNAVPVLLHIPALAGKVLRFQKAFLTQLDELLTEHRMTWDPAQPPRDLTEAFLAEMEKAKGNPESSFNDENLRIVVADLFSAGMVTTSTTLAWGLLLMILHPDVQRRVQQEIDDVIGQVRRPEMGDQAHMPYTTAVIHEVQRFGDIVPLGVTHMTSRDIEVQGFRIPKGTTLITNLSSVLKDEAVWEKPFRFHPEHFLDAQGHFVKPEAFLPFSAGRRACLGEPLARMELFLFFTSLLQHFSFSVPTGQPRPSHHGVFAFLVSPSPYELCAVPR
Chain of CYP2J2 (P51589 whole entry, canonical isoform): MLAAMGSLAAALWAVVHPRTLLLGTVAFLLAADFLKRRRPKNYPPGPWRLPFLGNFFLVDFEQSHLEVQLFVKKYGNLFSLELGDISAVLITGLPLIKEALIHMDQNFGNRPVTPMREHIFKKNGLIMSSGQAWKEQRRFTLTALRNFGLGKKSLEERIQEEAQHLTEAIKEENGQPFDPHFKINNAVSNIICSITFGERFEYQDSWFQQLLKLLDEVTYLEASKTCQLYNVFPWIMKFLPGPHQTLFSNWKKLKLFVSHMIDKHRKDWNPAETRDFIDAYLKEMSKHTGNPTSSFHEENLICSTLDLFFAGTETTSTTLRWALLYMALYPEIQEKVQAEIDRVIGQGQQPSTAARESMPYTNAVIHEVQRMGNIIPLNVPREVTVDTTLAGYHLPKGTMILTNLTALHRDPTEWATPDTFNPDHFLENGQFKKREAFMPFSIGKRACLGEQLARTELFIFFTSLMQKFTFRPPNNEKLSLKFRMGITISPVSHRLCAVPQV

As to `O=CN(C[C@H]1CN(c2ccc(N3CCOCC3=O)cc2)C(=O)O1)C(=O)c1ccc(Cl)s1` [Compound formula B, 5-chloro-N-formyl-N-({(5S)-2-oxo-3-[4-(3-oxomorpholin-4-yl)phenyl]-1,3-oxazolidin-5-yl}methyl)thiophene-2-carboxamide], the “Interpretation of CYP inhibition studies” value in data set [1] is “Low drug-drug interaction (compound formula-B”. The IC50 is over 1000 nM in data set [2]; 5.7 µM in data set [6]; 1.4 µM in data set [7]; 6.7 µM in data set [8]; 22.4 µM in [9]; 25.3 µM in [10]. For the same compound, the IC50 in [11] was 8.2 µM. In addition, the “Conversion: amount of test product detected” value in [3] and in data set [4] was “min. Neglible” each time. In addition, the “Analyte Peak Area, Average” value turned out to be 28315038 counts in data set [5] (buffer pH 2.1, 24 hr room temperature); 34879190 counts in data set [5] (buffer pH 4, 24 hr room temperature); 38907.5 counts in [5] (buffer pH 7.8, 24 hr room temperature). Besides, the “stability in varying pH buffer conditions” value in [5] (rivaroxaban formation observed by LCMS) is recorded as “degraded in varying pH buffer conditions”.
